Experiments:
HGF = type: cell-based; conditions: human, 24 h
Experimental: (§1) The cell lines HGF and hFOB 1.19 were cultured for cytocompatibility assessments. HGF cells were cultured in fibroblast basal medium supplemented with the manufacturer's recommended growth kit (2% fetal bovine serum, 50 μg/mL ascorbic acid, 5 μg/mL rh insulin, […] hydrocortisone hemisuccinate, 5 ng/mL rh FGF b, and 7.5 mM L-glutamine) and penicillin-streptomycin (10 units/mL and 10 μg/mL, respectively). hFOB 1.19 cells were maintained in a 1:1 mixture of Ham's F12 Medium and Dulbecco's Modified Eagle's Medium supplemented with L-glutamine (2.5 mM), fetal bovine serum (10%) and G418 (0.3 mg/mL). Both cell types were incubated at 37° C. in a 5% CO2 humified atmosphere. Medium was replaced every 48 h and both cell lines were subcultured once monolayers were 80% confluent. Cells were detached from the flask surface via enzymatic treatment with 0.05% trypsin and 5 mM EDTA for 5 min, with isolation of cell pellets via centrifugation at 200 RCF for 5 min.
(§2) The cellular cytotoxicity of GSNO against HGF and hFOB 1.19 cells was tested over 24 h direct contact experiments. […] A separate set of wells containing only media and the dye (n=5) were also prepared to account for background readings. The absorbance of each well was measured at 450 nm, adjusted against the average absorbance reading of the wells with only media. […]

[1] = GSNO/NO loading by chemiluminescence NO analyzer (Cu1+ depletion); type: physicochemical; conditions: hydrogel precursor sol, aqueous with cosolvent or surfactant or cyclodextrin; read-out: GSNO sol concentration after which solubility is incomplete
hFOB 1.19 = experiment: Cellular cytotoxicity of GSNO and precursor sol materials (CCK-8); type: cell-based, human; conditions: hFOB 1.19 cells, direct contact exposure
Experimental: as §1, §2

N[C@@H](CCC(=O)N[C@@H](CSN=O)C(=O)NCC(=O)O)C(=O)O [GSNO, S-Nitrosoglutathione]
GSNO treatment eliciting cytotoxic response (HGF): greater than 100 μg/mL
solubility [1]: ≤ 30 mg/mL
GSNO treatment eliciting cytotoxic response (hFOB 1.19): ~400 µg/mL

— patent publication US20250090573A1, “COMPOSITIONS FOR DELIVERING NITRIC OXIDE AND FLUORIDE AND METHODS FOR MAKING AND USING THE SAME” (University of Georgia Research Foundation, Inc., priority 2022, published 2025)
